Laboratory results taken from ChEMBL document CHEMBL2040799, “Exploring the Requirements for the Hydrophobic Scaffold and Polar Amine in inhibitors of M2 from Influenza A Virus” (ACS Med Chem Lett, 2011).

Legend:
[1] = Inhibition of Influenza A Virus M2 proton channel expressed in Xenopus laevis oocytes after 2 mins by two-electrode […] assay; type: cell-based; details: Oocyte
Oocyte = assay: Inhibition of Influenza A Virus M2 proton channel expressed in Xenopus laevis oocytes at 100 uM after 2 mins by two-electrode […] assay; type: cell-based

NNC1CCC2(CCCCC2)CC1
IC50 [1]: 31 µM
inhibition (Oocyte): 79%

N=C(NO)C12CC3CC(CC(C3)C1)C2
inhibition (Oocyte): 72%

N=C(N)NC(=N)NC12CC3CC(CC(C3)C1)C2
inhibition (Oocyte): 70%

NC1Cc2ccccc2C1
inhibition (Oocyte): 6%

NC12CC3CC(CC(C3)C1)C2
inhibition (Oocyte): 91%

OC12CC3CC(CC(C3)C1)C2
IC50 [1]: 20 µM
inhibition (Oocyte): 85%

OC1C2C3CC4C1C1C2CC3C41 (stereo not given)
inhibition (Oocyte): 57%

N=C(N)NCC12CC3CCC(CC(C3)C1)C2
inhibition (Oocyte): 90%

NC12CC3CCC(CC(C3)C1)C2
IC50 [1]: 24 µM
inhibition (Oocyte): 81%

NC12CC3CC(C1)CC(O)(C3)C2
inhibition (Oocyte): 5%

CC12CC3(O)CC1(C)CC3(O)C2
inhibition (Oocyte): 40%

NC(=O)C12CC3CC(CC(C3)C1)C2
inhibition (Oocyte): 75%

NC12CC3CC(C1)CC(CO)(C3)O2
inhibition (Oocyte): 13%

C1CCC2(CC1)CCNCC2
IC50 [1]: 1 µM
inhibition (Oocyte): 95%

NC(CO)C12CC3CC(CC(C3)C1)C2 (stereo not given)
IC50 [1]: 16 µM
inhibition (Oocyte): 90%

N=C(N)NC12CC3CC(CC(C3)C1)C2
IC50 [1]: 15 µM
inhibition (Oocyte): 97%

CC1(O)C2CC3CC(C2)CC1C3 (stereo not given)
IC50 [1]: 14 µM
inhibition (Oocyte): 86%

NC1C2CC3CC(C2)CC1C3 (stereo not given)
inhibition (Oocyte): 92%

OC1CC2C3CCC(C3)C2C1O (stereo not given)
inhibition (Oocyte): 50%

O=C1CC2(CCCCC2)CC(=O)N1
inhibition (Oocyte): 35%

NN1CCC2(CCCCC2)CC1
IC50 [1]: 7 µM
inhibition (Oocyte): 96%

CC(C)(C)CC(C)(C)N
IC50 [1]: 21 µM
inhibition (Oocyte): 87%

NOC12CC3CC(CC(C3)C1)C2
inhibition (Oocyte): 87%

O=C1C2CC3CC(C2)CC1C3
IC50 [1]: 29 µM
inhibition (Oocyte): 69%

C1CC2CC1C1CNCC21 (stereo not given)
inhibition (Oocyte): 74%

N=C(N)C12CC3CC(CC(C3)C1)C2
IC50 [1]: 4 µM
inhibition (Oocyte): 95%

NC1CC2CC1C1CCCC21 (stereo not given)
IC50 [1]: 9 µM
inhibition (Oocyte): 94%

CC1(C)C(N)C1(C)C
inhibition (Oocyte): 28%

C1CC2CC1C1CNC21 (stereo not given)
inhibition (Oocyte): 45%

NN1C(=O)CC2(CCCCC2)CC1=O
inhibition (Oocyte): 29%

OC1CCC(C2CC3CCC2C3)CC1O (stereo not given)
inhibition (Oocyte): 80%

CC(C)(C)c1ccc(CN)cc1
inhibition (Oocyte): 40%

OC1C2C3CC4C2C(O)C2C1C3C42 (stereo not given)
inhibition (Oocyte): 76%

C1CC2CCC1CNC2
inhibition (Oocyte): 75%

O=S(=O)(O)C12CC3CC(CC(C3)C1)C2
inhibition (Oocyte): 3%

C1NC2CC3CC1CC(C3)C2
inhibition (Oocyte): 84%

NC1C2C3CC4C2C(O)C2C1C3C42 (stereo not given)
IC50 [1]: 24 µM
inhibition (Oocyte): 86%

NC1CCC2(CCCCC2)CC1
inhibition (Oocyte): 89%

NC1C2C3CC4C1C1C2CC3C41 (stereo not given)
IC50 [1]: 8 µM
inhibition (Oocyte): 96%

NC12CCC3CC(CC(C3)C1)C2
IC50 [1]: 29 µM
inhibition (Oocyte): 92%
